Experimental data published in patent US6440987B1, “Antipruritic” (Toray Industries, Inc., priority 1996, dated 2002).

What was measured:
guinea pig ileum = assay: Assay of opioid activity by guinea pig ileum assay (electrically evoked contraction of longitudinal muscle strip); details: for IC50: Cavia porcellus, inhibition of electrically evoked contraction, absence of antagonist; for Ke (nM) Naloxone (100 nM): naloxone as μ antagonist; for Ke (nM) nor-BNI (5 nM): nor-BNI as κ antagonist
Procedure: Assay of opioid activity by Guinea pig ileum assay.
Male Hartley guinea pigs were used. The guinea pig was killed with a blow, and the ileum excised; the lumen of ileum was washed with a nutritious fluid; and only a piece of longitudinal muscle was stripped. This longitudinal muscle strip was suspended in a Magnus tube filled with Krebes-Henseleit solution (NaCl 135 mM; KCl 4.8 mM; CaCl2 3.4 mM; KH2PO4 1.2 mM; NaHCO3 8.3 mM; MgSO4, 2.5 mM; and glucose 11 mM) kept at 37° C., and gassed with a mixture of 5% carbon dioxide and 95% oxygen. Electrical stimulation was delivered at a rate of 0.1 Hz with 0.5 ms pulses through ring-shaped platinum electrodes placed at upper and lower levels in a Magnus tube. Tissue contractions were recorded via an isometric transducer on a polygraph.
(§1) The test drug was cumulatively added until it inhibited over 50% the contraction of specimen evoked by the electrical stimulation, in the presence or absence of naloxone as a μ antagonist, or nor-BNI as a κ antagonist, and IC50s were calculated for respective experimental conditions. From the difference in drug efficacy in the presence and absence of the antagonist, Ke values were calculated on the basis of following equations.
(§2) Ke=[Concentration of antagonist added]/(Dose ratio−1)
Dose ratio=IC50 in the presence of antagonist/IC50 in the absence of antagonist

mouse vas deferens = assay: Assay of opioid activity by mouse vas deferens assay (electrically evoked contraction); details: for Ke (nM) NTI (10 nM): NTI as δ antagonist; for IC50: inhibition of electrically evoked contraction, absence of antagonist; for Ke (nM) Naloxone (30 nM): naloxone as μ antagonist; for Ke (nM) nor-BNI (10 nM): nor-BNI as κ antagonist
Procedure: Assay of opioid activity by mouse vas deferens assay
Male ddY mice were used for the experiment. The vas deferens specimen removed from the animal was suspended in a Magnus tube filled with Krebes-Henseleit solution (NaCl […]; KCl 5.9 mM; CaCl2 2.5 mM; NaH2PO4 1.2 mM; NaHCO3 15.3 mM; and glucose 11.5 mM) kept at 37° C., and gassed with a mixture of 5% carbon dioxide and 95% oxygen. Electrical stimulation was delivered at a rate of 0.1 Hz with 1.0 ms pulses through ring-shaped platinum electrodes placed at upper and lower levels in a Magnus tube. Tissue contractions were recorded via an isometric transducer on a polygraph.
as §1, with “test drug” for “The test drug”, “μ antagonist, nor-BNI as” for “μ antagonist, or nor-BNI as”, “κ antagonist, or NTI as a δ antagonist and IC50s” for “κ antagonist, and IC50s”
as §2
IC50 ratio=IC50 in the presence of antagonist/IC50 in the absence of antagonist

[1] = test system: itching of erupted lesions of urticaria; assay: Topical application to erupted lesions of urticaria, intensity of itching; type: in vivo, human; design: key to Intensity of itching five minutes after the treatment: itching whose intensity was evaluated as moderate (ranked as “++”); completely eradicated five minutes after the treatment (ranked as “−”); details: male adult
Procedure: An opioid compound selectively acting on a κ receptor, (−)-17-(cyclopropylmethyl)-3,14β-dihydroxy-4,5α-epoxy-6β-[N-methyl-trans-3-(3-furyl)acrylamido]morphinan hyrochloride 7, [drawing 52]
was dissolved in physiological saline, to give an aqueous solution with a concentration of 40 μg/ml. This aqueous solution was topically applied to three erupted lesions of urticaria, on the lower limb of an adult at a dose of 0.2 μg/cm^2.

[2] = test system: itching due to atopic dermatitis; assay: Topical application to skin lesions of a patient with atopic dermatitis, intensity of itching; type: in vivo, human
Procedure: The drug solution was applied on five spots with a volume of about 50 μl per 10 cm^2, which was equivalent to a topical dose of 0.2 μg/cm^2. As a comparison, indomethacin cream (having a drug concentration of 7.5 mg/g) was applied at a dose of 75 μg/cm2 in the same manner.

[3] = test system: scratching behavior induced by Compound 48/80; design: species or system ddY mice; details: mouse, in vivo, sc
[4] = topical, Compound 7 0.2 μg/cm^2, indomethacin cream 75 μg/cm2, prior to application +++

| Compound | IC50 (guinea pig ileum) [nM] | Ke (nM) Naloxone (100 nM) (guinea pig ileum) [nM] | Ke (nM) nor-BNI (5 nM) (guinea pig ileum) [nM] | Ke (nM) NTI (10 nM) (mouse vas deferens) [nM] | IC50 (mouse vas deferens) [nM] | Ke (nM) Naloxone (30 nM) (mouse vas deferens) [nM] | Ke (nM) nor-BNI (10 nM) (mouse vas deferens) [nM] | melting point | Inhibition (%) of scratching behavior [3] [%] | further results |
| --- | --- | --- | --- | --- | --- | --- | --- | --- | --- | --- |
| CN(C(=O)/C=C/c1ccoc1)[C@@H]1CC[C@@]2(O)[C@H]3Cc4ccc(O)c5c4[C@@]2(CC[N+]3(C)CC2CC2)[C@H]1O5.[I-] (stereo partly drawn) [Compound 1, 17-cyclopropylmethyl-3,14β-dihydroxy-4,5α-epoxy-17-methyl-6β-(N-methyl-trans-3-(3-furyl)acrylamido)morphinanium iodide] | 1.94 | 16.67 | 0.03 | 11.23 | 4.42 | 14.18 | 0.17 | 202.4 to 207.9 °C (dec.) |  |  |
| COc1cccc(/C=C/C(=O)N(C)[C@@H]2CC[C@@]3(O)[C@H]4Cc5ccc(O)c6c5[C@@]3(CC[N+]4(C)CC3CC3)[C@H]2O6)c1.[I-] (stereo partly drawn) [Compound 2, 17-cyclopropylmethyl-3,14β-dihydroxy-4,5α-epoxy-17-methyl-6β-(N-methyl-3-methoxycinnamamido)morphinanium.iodide] | 6.71 | 98.2 | 0.54 | 25 | 5.9 | 100 | 0.45 |  |  |  |
| CN(C(=O)/C=C/c1ccoc1)[C@@H]1CC[C@@]2(O)[C@H]3Cc4ccc(O)c5c4[C@@]2(CC[N+]3([O-])CC2CC2)[C@H]1O5 (stereo partly drawn) [Compound 3, 17-cyclopropylmethyl-4,5α-epoxy-3,14β-dihydroxy-6β-[N-methyl-trans-3-(3-furyl)acrylamido]morphinan-N-oxide] | 1.06 |  | 0.02 |  | 2.14 | 30.48 | 0.040 | 238 to 239.8 °C (dec.) |  |  |
| COc1cccc(/C=C/C(=O)N(C)[C@@H]2CC[C@@]3(O)[C@H]4Cc5ccc(O)c6c5[C@@]3(CC[N+]4([O-])CC3CC3)[C@H]2O6)c1 (stereo partly drawn) [Compound 4, 17-cyclopropylmethyl-4,5α-epoxy-3,14β-dihydroxy-6β-(N-methyl-3-methoxycinnamamido)morphinan-N-oxide] | 4.09 | 28.7 | 0.09 | 11 | 1.8 | 50 | 0.67 | 234 to 236.8 °C (dec.) |  |  |
| CN(C(=O)C#Cc1ccc(C(F)(F)F)cc1)[C@@H]1CC[C@@]2(O)[C@H]3Cc4ccc(O)c5c4[C@@]2(CC[N+]3([O-])CC2CC2)[C@H]1O5 (stereo partly drawn) [Compound 5, 17-cyclopropylmethyl-4,5α-epoxy-3,14β-dihydroxy-6β-[N-methyl-3-(4-trifluoromethylphenyl)propyolamido]morphinan-N-oxide] | 1.55 | 29.5 | 0.19 | 5.0 | 0.59 | 5.9 | 0.33 | 205 to 208 °C (dec.) |  |  |
| Cc1cccc(C#CC(=O)N(C)[C@@H]2CC[C@@]3(O)[C@H]4Cc5ccc(O)c6c5[C@@]3(CC[N+]4([O-])CC3CC3)[C@H]2O6)c1 (stereo partly drawn) [Compound 6, 17-cyclopropylmethyl-4,5α-epoxy-3,14β-dihydroxy-6β-[N-methyl-3-(3-methylphenyl)propyolamido]morphinan-N-oxide] | 11.3 | 75.1 | 0.89 | 20 | 4.6 |  | 0.26 | 192 to 202 °C (dec.) |  |  |
| CN(C(=O)/C=C/c1ccoc1)[C@@H]1CC[C@@]2(O)[C@H]3Cc4ccc(O)c5c4[C@@]2(CCN3CC2CC2)[C@H]1O5.Cl [Compound 7, (−)-17-(cyclopropylmethyl)-3,14β-dihydroxy-4,5α-epoxy-6β-[N-methyl-trans-3-(3-furyl)acrylamido]morphinan hyrochloride] |  |  |  |  |  |  |  |  |  | Intensity of itching five minutes after the treatment ([1]; urticaria lesions on lower limb, topical 0.2 μg/cm^2 (40 μg/ml in saline), before treatment “++”): −; Duration of no itching state ([1]; urticaria, topical 0.2 μg/cm^2): about five; Duration of no itching state ([2]; topical 0.2 μg/cm^2): at least three; Relief from itching (in words) ([2]; topical, Compound 7 0.2 μg/cm^2 (in five minutes), indomethacin cream 75 μg/cm2): eradicated itching completely; Intensity of itching 5 minutes after application [2, 4]: −; Intensity of itching 10 minutes after application [2, 4]: −; Intensity of itching 3 hours after application [2, 4]: − |
| CN(C(=O)NCc1ccccc1)[C@H]1CC[C@@]2(O)[C@H]3Cc4ccc(O)c5c4[C@@]2(CCN3CC2CC2)[C@H]1O5.O=C(O)C(O)C(O)C(=O)O [Compound 12, 17-cyclopropylmethyl-3,14β-dihydroxy-4,5α-epoxy-6α-(N-methyl-N-benzylureido)morphinan tartrate] |  |  |  |  |  |  |  |  | 39 |  |
| CN(C(=O)Cc1ccc(Cl)c(Cl)c1)C(CN1CCCC1)c1ccccc1.Cl (stereo not drawn) [Compound 20] |  |  |  |  |  |  |  |  | 62 |  |
| Cl.O=C(C1CCc2cc(Cl)c(Cl)cc21)N1CCSCC1CN1CCCC1 (stereo not drawn) [Compound 21, 3-(1-pyrrolidinylmethyl)-4-[5,6-dichloro-1-indancarbonyl]-tetrahydro-1,4-thiazine hydrochloride] |  |  |  |  |  |  |  |  | 23 |  |
